This is an account of results in US9102614B2, “Naphth-2-ylacetic acid derivatives to treat AIDS” (Gilead Sciences, Inc., priority 2010, dated 2015).

Broadly, the EC50 is the concentration needed to bring the measured effect to its halfway point.

In the first assay the test system is HIV-IIIb. Put plainly: Test A: Antiviral Assays in MT4 Cells. In kind it is cell-based. Particulars: Human immunodeficiency virus 1, IIIB, MT4, 120 h, MT-4 cells infected with HIV-IIIb (0.004 m.o.i.), 5 days of incubation, CellTiter-Glo chemiluminescence readout; read-out: EC50. In outline: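 MT-4 cells pre-infected with HIV-IIIb (0.004 m.o.i.) at 37 °C, then plated with 3-fold serially diluted compound (10 concentrations, quadruplicate, RPMI 1640/10% FBS). After 5 days at 37 °C, cell viability read by CellTiter-Glo chemiluminescence; mock-infected cells run in parallel.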
For orientation: Cellular ATP, detected with luciferase, serves as a proxy for viable cell number.
Consider `Cc1cc2cc(-c3ccncc3)ccc2c(-c2ccc(Cl)cc2)c1[C@H](OC(C)(C)C)C(=O)O` [Compound 53, (S)-2-tert-Butoxy-2-(1-(4-chlorophenyl)-3-methyl-6-(pyridin-4-yl)naphthalen-2-yl)acetic acid], for which the half-maximal effective concentration (EC50) turned out to be 120 nM.
Still for that read-out and setting: as for `Cc1cc2ccc(C#CC3(O)CCN(C)CC3)cc2c(-c2ccc(Cl)cc2)c1C(OC(C)(C)C)C(=O)O` (stereo not drawn) [Compound 79, 2-tert-Butoxy-2-(1-(4-chlorophenyl)-7-((4-hydroxy-1-methylpiperidin-4-yl)ethynyl)-3-methylnaphthalen-2-yl)acetic acid], the figure is 89 nM; as for `Cc1cc2c(C#N)cc(F)cc2c(-c2ccc3c4c(ccnc24)CCO3)c1[C@H](OC(C)(C)C)C(=O)O` (atropisomer, axis not shown) [Compound 154], 29000 nM; as for `Cc1cc2cc(C(N)=O)c(F)cc2c(-c2ccc3c4c(ccnc24)CCO3)c1[C@H](OC(C)(C)C)C(=O)O` (atropisomer, axis not shown) [Compound 168], 45000 nM.
Consider `Cc1cc2c(F)cccc2c(-c2ccc(Cl)cc2)c1C(OC(C)(C)C)C(=O)O` (stereo not drawn) [Compound 46, 2-tert-Butoxy-2-(1-(4-chlorophenyl)-5-fluoro-3-methylnaphthalen-2-yl)acetic acid], for which the EC50 was found to be 1400 nM.
Turning to `COCc1cc2ccccc2c(-c2ccc(Cl)cc2)c1[C@H](OC(C)(C)C)C(=O)O` [Compound 28, (S)-2-tert-Butoxy-2-(1-(4-chlorophenyl)-3-(methoxymethyl)naphthalen-2-yl)acetic acid], the EC50 worked out at 400 nM.
Still for that read-out and setting: as for `CNC(=O)c1cc2cc(C)c([C@H](OC(C)(C)C)C(=O)O)c(-c3ccc4c5c(ccnc35)CCO4)c2cc1F` (atropisomer, axis not shown) [Compound 166], the figure is 16000 nM.
The same measure, in the same setting: as for `Cc1cc2cc(C(F)F)c(F)cc2c(-c2ccc3c4c(ccnc24)CCO3)c1[C@H](OC(C)(C)C)C(=O)O` (atropisomer, axis not shown) [Compound 164], the figure is 25000 nM.
Still for that read-out and setting: as for `Cc1cc2ccccc2c(C2=CCC(C)(C)CC2)c1[C@H](OC(C)(C)C)C(=O)O` [Compound 14, (S)-2-tert-Butoxy-2-(1-(4,4-dimethylcyclohex-1-enyl)-3-methylnaphthalen-2-yl)acetic acid], the figure is 11 nM.
Regarding `Cc1cc2c(Cl)cc(F)cc2c(-c2ccc3c4c(ccnc24)CCO3)c1[C@H](OC(C)(C)C)C(=O)O` [Compound 111, (2S)-2-tert-Butoxy-2-(5-chloro-1-(2,3-dihydropyrano[4,3,2-de]quinolin-7-yl)-7-fluoro-3-methylnaphthalen-2-yl)acetic acid], the EC50 worked out at 1100 nM.
Same read-out and setting: as for `Cc1cc2c(-c3cncnc3)cccc2c(-c2ccc(Cl)cc2)c1C(OC(C)(C)C)C(=O)O` (stereo not drawn) [Compound 41, 2-tert-Butoxy-2-(1-(4-chlorophenyl)-3-methyl-5-(pyrimidin-5-yl)naphthalen-2-yl)acetic acid], the figure is 400 nM; as for `Cc1c(C(OC(C)(C)C)C(=O)O)c(-c2ccc(Cl)cc2)c2ccccc2c1C#N` (stereo not drawn) [Compound 147, 2-tert-Butoxy-2-(1-(4-chlorophenyl)-4-cyano-3-methylnaphthalen-2-yl)acetic acid], 1100 nM; as for `Cc1cc2ccccc2c(C2=CCCC2)c1[C@H](OC(C)(C)C)C(=O)O` [Compound 12, (S)-2-tert-Butoxy-2-(1-cyclopentenyl-3-methylnaphthalen-2-yl)acetic acid], 110 nM.
On to `Cc1c(C(OC(C)(C)C)C(=O)O)c(-c2ccc(Cl)cc2)c2ccccc2c1-c1ccc(N(C)C)nc1` (stereo not drawn) [Compound 137, 2-tert-Butoxy-2-(1-(4-chlorophenyl)-4-(6-(dimethylamino)pyridin-3-yl)-3-methylnaphthalen-2-yl)acetic acid], for which the EC50 stood at 130 nM.
On the same count and under the same terms, as for `Cc1cc2ccc(C#CC(C)(C)N)cc2c(-c2ccc3c(c2)CCCO3)c1C(OC(C)(C)C)C(=O)O` (stereo not drawn) [Compound 87, 2-(7-(3-Amino-3-methylbut-1-ynyl)-1-(chroman-6-yl)-3-methylnaphthalen-2-yl)-2-tert-butoxyacetic acid], the figure is 72 nM.
On the same count and under the same terms, the figure for `CC(C)(C)O[C@H](C(=O)O)c1c(COc2cccnc2)cc2ccccc2c1-c1ccc(Cl)cc1` [Compound 25, (S)-2-tert-Butoxy-2-(1-(4-chlorophenyl)-3-((pyridin-3-yloxy)methyl)naphthalen-2-yl)acetic acid] is 26000 nM.
The same measure, in the same setting: as for `Cc1cc2ccccc2c(-c2ccc(Cl)cc2Cl)c1C(OC(C)(C)C)C(=O)O` (stereo not drawn) [Compound 33, tert-Butoxy-[1-(2,4-dichloro-phenyl)-3-methyl-naphthalen-2-yl]-acetic acid], the figure is 120 nM; as for `Cc1cc2cc(Cl)ccc2c(-c2ccc(Cl)cc2)c1C(OC(C)(C)C)C(=O)O` (racemic) [Compound 67, 2-tert-Butoxy-2-(6-chloro-1-(4-chlorophenyl)-3-methylnaphthalen-2-yl)acetic acid], 290 nM.
On to `Cc1cc2c(-c3cncnc3)cc(F)cc2c(-c2ccc3c4c(ccnc24)CCO3)c1[C@H](OC(C)(C)C)C(=O)O` (atropisomer, axis not shown) [Compound 153], for which the concentration giving a half-maximal response (EC50) is 11000 nM.
On the same count and under the same terms, as for `Cc1c(C(OC(C)(C)C)C(=O)O)c(-c2ccc(Cl)cc2)c2ccccc2c1-c1ccc(Cl)cc1` (stereo not drawn) [Compound 140, 2-(1,4-Bis(4-chlorophenyl)-3-methylnaphthalen-2-yl)-2-tert-butoxyacetic acid], the figure is 1600 nM; as for `Cc1cc2cc(-c3ncccn3)ccc2c(-c2ccc(Cl)cc2)c1[C@H](OC(C)(C)C)C(=O)O` [Compound 59, (S)-2-tert-butoxy-2-(1-(4-chlorophenyl)-3-methyl-6-(pyrimidin-2-yl)naphthalen-2-yl)acetic acid], 160 nM; as for `C=Cc1ccc2cc(C)c(C(OC(C)(C)C)C(=O)O)c(-c3ccc(Cl)cc3)c2c1` (stereo not drawn) [Compound 76, 2-tert-Butoxy-2-(1-(4-chlorophenyl)-3-methyl-7-vinylnaphthalen-2-yl)acetic acid], 930 nM.
Same read-out and setting: as for `Cc1cc2ccccc2c(-c2ccc(C(F)(F)F)c3cccnc23)c1[C@H](OC(C)(C)C)C(=O)O` [Compound 175], the figure is 20000 nM; as for `Cc1c(C(OC(C)(C)C)C(=O)O)c(-c2ccc(Cl)cc2)c2ccccc2c1-c1ccccc1` (stereo not drawn) [Compound 136, 2-tert-Butoxy-2-(1-(4-chlorophenyl)-3-methyl-4-phenylnaphthalen-2-yl)acetic acid], 340 nM.

The assay is the same for the next values; noted with them: MT-4 cells infected with HIV-IIIb (0.004 m.o.i.), 5 days of incubation, CellTiter-Glo chemiluminescence readout; read-out: EC50.
As to `Cc1cc2cc(F)c(F)cc2c(-c2ccc3c4c(ccnc24)CCO3)c1[C@@H](OC(C)(C)C)C(=O)O` (atropisomer, axis not shown) [Compound 173], the EC50 is 3200 nM.
On the same count and under the same terms, as for `Cc1cc2cc(C)c([C@H](OC(C)(C)C)C(=O)O)c(-c3ccc4c5c(ccnc35)CCO4)c2cc1F` (atropisomer, axis not shown) [Compound 156], the figure is 7300 nM; as for `Cc1cc2ccccc2c(-c2cccc3cccnc23)c1[C@H](OC(C)(C)C)C(=O)O` [Compound 4K, (S)-2-tert-butoxy-2-((R)-3-methyl-1-(quinolin-8-yl)naphthalen-2-yl)acetic acid], 301 nM.
On the same count and under the same terms, the figure for `Cc1cc2ccccc2c(-c2ccc(C(F)(F)F)c3cccnc23)c1[C@H](OC(C)(C)C)C(=O)O` [Compound 7E, (S)-2-tert-butoxy-2-((S)-3-methyl-1-(5-(trifluoromethyl)quinolin-8-yl)naphthalen-2-yl)acetic acid] is 20000 nM; for `Cc1cc2cc(F)ccc2c(-c2ccc3c4c(ccnc24)CCO3)c1C(OC(C)(C)C)C(=O)O` (stereo not drawn) [Compound 162] it is 1400 nM.
Same read-out and setting: as for `Cc1cc2cc(C3CC3)c(F)cc2c(-c2ccc3c4c(ccnc24)CCO3)c1[C@H](OC(C)(C)C)C(=O)O` [Compound 105, (S)-2-tert-Butoxy-2-((R)-6-cyclopropyl-1-(2,3-dihydropyrano[4,3,2de]quinolin-7-yl)-7-fluoro-3-methylnaphthalen-2-yl)acetic acid], the figure is 43 nM; as for `Cc1cc2c(C#N)cc(F)cc2c(-c2ccc3c4c(ccnc24)CCO3)c1[C@H](OC(C)(C)C)C(=O)O` [Compound 113A, (S)-2-tert-Butoxy-2-((R)-5-cyano-1-(2,3-dihydropyrano[4,3,2-de]quinolin-7-yl)-7-fluoro-3-methylnaphthalen-2-yl)acetic acid], 910 nM.
Regarding `Cc1cc2c(Cl)cccc2c(-c2ccc3c4c(ccnc24)CCO3)c1C(OC(C)(C)C)C(=O)O` [Compound 47, 2-tert-Butoxy-2-((R)-5-chloro-1-(2,3-dihydropyrano[4,3,2-de]quinolin-7-yl)-3-methylnaphthalen-2-yl)acetic acid], the EC50 was found to be 110 nM.
Still for that read-out and setting: the figure for `Cc1cc2c(F)c(C)ccc2c(-c2ccc3c4c(ccnc24)CCO3)c1[C@H](OC(C)(C)C)C(=O)O` [Compound 119, (S)-2-tert-Butoxy-2-((R)-1-(2,3-dihydropyrano[4,3,2-de]quinolin-7-yl)-5-fluoro-3,6-dimethylnaphthalen-2-yl)acetic acid] is 11 nM; for `Cc1cc2cc(Cl)c(F)cc2c(-c2ccc3c4c(ccnc24)CCO3)c1[C@H](OC(C)(C)C)C(=O)O` [Compound 101, (S)-2-tert-Butoxy-2-((R)-6-chloro-1-(2,3-dihydropyrano[4,3,2-de]quinolin-7-yl)-7-fluoro-3-methylnaphthalen-2-yl)acetic acid] it is 41 nM.
The same measure, in the same setting: as for `Cc1c([C@H](OC(C)(C)C)C(=O)O)c(-c2ccc3c4c(ccnc24)CCO3)c2ccccc2c1F` [Compound 122, (2S)-2-tert-butoxy-2-((R)-1-(2,3-dihydropyrano[4,3,2-de]quinolin-7-yl)-4-fluoro-3-methylnaphthalen-2-yl)acetic acid], the figure is 36 nM; as for `Cc1cc2ccccc2c(-c2cc(F)cc3cccnc23)c1[C@H](OC(C)(C)C)C(=O)O` [Compound 159], 1300 nM.
